Data published in paper PMC3521580 (Journal of medicinal chemistry, 2011).
Read-outs that look alike come from different tables or passages of the source. Non-standard residues stand in square brackets, D forms with d. Residues, ends and D or L forms follow the SMILES beside them. *: point of attachment. X1 = CC(=O)NCCCC(CCCNC(C)=O)(NC(=O)CNC(=O)Cn1cc(CCC(=O)*)nn1)C(=O)NCCC(N)=O

Tests used:
[1] = biological target: T1, human MC4R (Homo sapiens, UniProt P32245); assay: Time resolved fluorescence competition binding assay against Eu-NDP-α-MSH; details: for Relative potency to Ac-MSH(4): Table 2
T1 sequence (P32245 whole entry): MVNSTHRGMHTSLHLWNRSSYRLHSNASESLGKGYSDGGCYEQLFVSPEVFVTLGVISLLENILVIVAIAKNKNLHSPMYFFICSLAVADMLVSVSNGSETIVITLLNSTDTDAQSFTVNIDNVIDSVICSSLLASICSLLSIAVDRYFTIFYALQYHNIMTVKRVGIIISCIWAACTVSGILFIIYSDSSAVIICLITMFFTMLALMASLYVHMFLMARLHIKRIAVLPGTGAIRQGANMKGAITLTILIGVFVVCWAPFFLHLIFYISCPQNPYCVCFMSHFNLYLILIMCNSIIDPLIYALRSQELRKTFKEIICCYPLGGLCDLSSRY

[2] = biological target: T1, human MC4R; assay: cAMP biological response chemiluminescent immunoassay in Hek293/hMC4R cells; type: cell-based; details: hMC4R cells, result in words

SMILES	IC50 [1] [nM]	IC50 ([1]; IC50, MC4R binding affinity as quoted in the text) [nM]	Relative potency to Ac-MSH(4) ([1]; ratio of IC50 values, fold)	cAMP production, agonist activity at MC4R [2]	Relative potency to NB397 ([1]; Table 3, ratio of IC50 values, fold)
CC(=O)N[C@@H](CCCCNC(=O)CCc1cn(CC(=O)NCC(=O)N2CCC[C@H]2C(=O)NCC(=O)N2CCC[C@H]2C(=O)NCC(=O)NCCCC(CCCNC(=O)CNC(=O)[C@@H]2CCCN2C(=O)CNC(=O)[C@@H]2CCCN2C(=O)CNC(=O)Cn2cc(CCC(=O)NCCCC[C@H](NC(C)=O)C(=O)N[C@@H](Cc3c[nH]cn3)C(=O)N[C@H](Cc3ccccc3)C(=O)N[C@@H](CCCNC(=N)N)C(=O)N[C@@H](Cc3c[nH]c4ccccc34)C(N)=O)nn2)(NC(=O)CNC(=O)CNC(=O)[C@@H]2CCCN2C(=O)CNC(=O)[C@@H]2CCCN2C(=O)CNC(=O)Cn2cc(CCC(=O)NCCCC[C@H](NC(C)=O)C(=O)N[C@@H](Cc3c[nH]cn3)C(=O)N[C@H](Cc3ccccc3)C(=O)N[C@@H](CCCNC(=N)N)C(=O)N[C@@H](Cc3c[nH]c4ccccc34)C(N)=O)nn2)C(=O)NCCC(N)=O)nn1)C(=O)N[C@@H](Cc1c[nH]cn1)C(=O)N[C@H](Cc1ccccc1)C(=O)N[C@@H](CCCNC(=N)N)C(=O)N[C@@H](Cc1c[nH]c2ccccc12)C(N)=O (stereo partly shown) [NB299]	410 ± 70	–	11	–	–
CC(=O)N[C@@H](CCCCNC(=O)CCc1cn(CC(=O)NCC(=O)N2CCC[C@H]2C(=O)NCC(=O)N2CCC[C@H]2C(=O)NCC(=O)N2CCC[C@H]2C(=O)NCC(=O)NCCCC(CCCNC(=O)CNC(=O)[C@@H]2CCCN2C(=O)CNC(=O)[C@@H]2CCCN2C(=O)CNC(=O)[C@@H]2CCCN2C(=O)CNC(=O)Cn2cc(CCC(=O)NCCCC[C@H](NC(C)=O)C(=O)N[C@@H](Cc3c[nH]cn3)C(=O)N[C@H](Cc3ccccc3)C(=O)N[C@@H](CCCNC(=N)N)C(=O)N[C@@H](Cc3c[nH]c4ccccc34)C(N)=O)nn2)(NC(=O)CNC(=O)CNC(=O)[C@@H]2CCCN2C(=O)CNC(=O)[C@@H]2CCCN2C(=O)CNC(=O)[C@@H]2CCCN2C(=O)CNC(=O)Cn2cc(CCC(=O)NCCCC[C@H](NC(C)=O)C(=O)N[C@@H](Cc3c[nH]cn3)C(=O)N[C@H](Cc3ccccc3)C(=O)N[C@@H](CCCNC(=N)N)C(=O)N[C@@H](Cc3c[nH]c4ccccc34)C(N)=O)nn2)C(=O)NCCC(N)=O)nn1)C(=O)N[C@@H](Cc1c[nH]cn1)C(=O)N[C@H](Cc1ccccc1)C(=O)N[C@@H](CCCNC(=N)N)C(=O)N[C@@H](Cc1c[nH]c2ccccc12)C(N)=O (stereo partly shown) [NB300]	620 ± 51	–	7	–	–
CC(=O)NCCCC(CCCNC(C)=O)(NC(=O)CNC(=O)Cn1cc(CCC(=O)NCCCC[C@H](NC(C)=O)C(=O)N[C@@H](Cc2c[nH]cn2)C(=O)N[C@H](Cc2ccccc2)C(=O)N[C@@H](CCCNC(=N)N)C(=O)N[C@@H](Cc2c[nH]c3ccccc23)C(N)=O)nn1)C(=O)NCCC(N)=O [NB397] (Ac-K(X1)H[dF]RW-NH2; N-terminus assumed)	–	–	–	agonists	–
CC(=O)NCC(=O)NC(CCCNC(=O)Cn1cc(CCC(=O)NCCCC[C@H](NC(C)=O)C(=O)N[C@@H](Cc2c[nH]cn2)C(=O)N[C@H](Cc2ccccc2)C(=O)N[C@@H](CCCNC(=N)N)C(=O)N[C@@H](Cc2c[nH]c3ccccc23)C(N)=O)nn1)(CCCNC(=O)Cn1cc(CCC(=O)NCCCC[C@H](NC(C)=O)C(=O)N[C@@H](Cc2c[nH]cn2)C(=O)N[C@H](Cc2ccccc2)C(=O)N[C@@H](CCCNC(=N)N)C(=O)N[C@@H](Cc2c[nH]c3ccccc23)C(N)=O)nn1)C(=O)NCCC(N)=O (stereo partly shown) [NB399]	–	–	–	agonists	16

Now from value to molecule, other results behind:

IC50 [1] [nM]	IC50 ([1]; IC50, MC4R binding affinity as quoted in the text) [nM]	Relative potency to Ac-MSH(4) ([1]; ratio of IC50 values, fold)	SMILES	cAMP production, agonist activity at MC4R [2]	Relative potency to NB397 ([1]; Table 3, ratio of IC50 values, fold)
71 ± 5.3	~72	64	CC(=O)N[C@@H](CCCCNC(=O)CCc1cn(CC(=O)NCCCC(CCCNC(=O)Cn2cc(CCC(=O)NCCCC[C@H](NC(C)=O)C(=O)N[C@@H](Cc3c[nH]cn3)C(=O)N[C@H](Cc3ccccc3)C(=O)N[C@@H](CCCNC(=N)N)C(=O)N[C@@H](Cc3c[nH]c4ccccc34)C(N)=O)nn2)(NC(=O)CNC(=O)Cn2cc(CCC(=O)NCCCC[C@H](NC(C)=O)C(=O)N[C@@H](Cc3c[nH]cn3)C(=O)N[C@H](Cc3ccccc3)C(=O)N[C@@H](CCCNC(=N)N)C(=O)N[C@@H](Cc3c[nH]c4ccccc34)C(N)=O)nn2)C(=O)NCCC(N)=O)nn1)C(=O)N[C@@H](Cc1c[nH]cn1)C(=O)N[C@H](Cc1ccccc1)C(=O)N[C@@H](CCCNC(=N)N)C(=O)N[C@@H](Cc1c[nH]c2ccccc12)C(N)=O (stereo partly shown) [NB297]	–	–
220 ± 59	–	21	CC(=O)N[C@@H](CCCCNC(=O)CCc1cn(CC(=O)NCC(=O)N2CCC[C@H]2C(=O)NCC(=O)NCCCC(CCCNC(=O)CNC(=O)[C@@H]2CCCN2C(=O)CNC(=O)Cn2cc(CCC(=O)NCCCC[C@H](NC(C)=O)C(=O)N[C@@H](Cc3c[nH]cn3)C(=O)N[C@H](Cc3ccccc3)C(=O)N[C@@H](CCCNC(=N)N)C(=O)N[C@@H](Cc3c[nH]c4ccccc34)C(N)=O)nn2)(NC(=O)CNC(=O)CNC(=O)[C@@H]2CCCN2C(=O)CNC(=O)Cn2cc(CCC(=O)NCCCC[C@H](NC(C)=O)C(=O)N[C@@H](Cc3c[nH]cn3)C(=O)N[C@H](Cc3ccccc3)C(=O)N[C@@H](CCCNC(=N)N)C(=O)N[C@@H](Cc3c[nH]c4ccccc34)C(N)=O)nn2)C(=O)NCCC(N)=O)nn1)C(=O)N[C@@H](Cc1c[nH]cn1)C(=O)N[C@H](Cc1ccccc1)C(=O)N[C@@H](CCCNC(=N)N)C(=O)N[C@@H](Cc1c[nH]c2ccccc12)C(N)=O (stereo partly shown) [NB298]	–	–
88 ± 12	–	52	CC(=O)N[C@@H](CCCCNC(=O)CCc1cn(CC(=O)NCCC(=O)NCCCC(CCCNC(=O)CCNC(=O)Cn2cc(CCC(=O)NCCCC[C@H](NC(C)=O)C(=O)N[C@@H](Cc3c[nH]cn3)C(=O)N[C@H](Cc3ccccc3)C(=O)N[C@@H](CCCNC(=N)N)C(=O)N[C@@H](Cc3c[nH]c4ccccc34)C(N)=O)nn2)(NC(=O)CNC(=O)CCNC(=O)Cn2cc(CCC(=O)NCCCC[C@H](NC(C)=O)C(=O)N[C@@H](Cc3c[nH]cn3)C(=O)N[C@H](Cc3ccccc3)C(=O)N[C@@H](CCCNC(=N)N)C(=O)N[C@@H](Cc3c[nH]c4ccccc34)C(N)=O)nn2)C(=O)NCCC(N)=O)nn1)C(=O)N[C@@H](Cc1c[nH]cn1)C(=O)N[C@H](Cc1ccccc1)C(=O)N[C@@H](CCCNC(=N)N)C(=O)N[C@@H](Cc1c[nH]c2ccccc12)C(N)=O (stereo partly shown) [NB301]	–	–
120 ± 10	–	38	CC(=O)N[C@@H](CCCCNC(=O)CCc1cn(CC(=O)NCCC(=O)NCCC(=O)NCCCC(CCCNC(=O)CCNC(=O)CCNC(=O)Cn2cc(CCC(=O)NCCCC[C@H](NC(C)=O)C(=O)N[C@@H](Cc3c[nH]cn3)C(=O)N[C@H](Cc3ccccc3)C(=O)N[C@@H](CCCNC(=N)N)C(=O)N[C@@H](Cc3c[nH]c4ccccc34)C(N)=O)nn2)(NC(=O)CNC(=O)CCNC(=O)CCNC(=O)Cn2cc(CCC(=O)NCCCC[C@H](NC(C)=O)C(=O)N[C@@H](Cc3c[nH]cn3)C(=O)N[C@H](Cc3ccccc3)C(=O)N[C@@H](CCCNC(=N)N)C(=O)N[C@@H](Cc3c[nH]c4ccccc34)C(N)=O)nn2)C(=O)NCCC(N)=O)nn1)C(=O)N[C@@H](Cc1c[nH]cn1)C(=O)N[C@H](Cc1ccccc1)C(=O)N[C@@H](CCCNC(=N)N)C(=O)N[C@@H](Cc1c[nH]c2ccccc12)C(N)=O (stereo partly shown) [NB302]	–	–
